Test results taken from US20230398146A1, “IMMUNE MODULATION OF MYELOID DERIVED SUPPRESSIVE CELL FUNCTION FOR CANCER TREATMENT” (SURGE Therapeutics, Inc., priority 2020, published 2023).

Test system: 4T1-Luc2 cells
Experiment: Survival of mice after resection of orthotopic 4T1-Luc2 breast tumors, composition administered at the tumor resection site
Assay type: in vivo, mouse
Method: In some embodiments, an animal model of cancer can be used to identify and/or characterize composition comprising a polymeric biomaterial and a modulator of myeloid-derived suppressive cells. For example, a tumor resection is performed on a tumor-bearing mouse, and a composition described herein, e.g., composition comprising a polymeric biomaterial and a modulator of myeloid-derived suppressive cells is administered to the tumor resection site. The survival of treated subjects is then monitored. In some embodiments, a composition comprising a polymeric biomaterial and a modulator of myeloid-derived suppressive cells is considered and/or determined to be useful in accordance with the present disclosure when it is characterized, in that when tested in vivo as described in the present Example, it extends survival of a treated subject, e.g., by at least 1 week, at least 2 weeks, at least 3 weeks, at least 4 weeks, at least 2 months, at least 3 months, at least 4 months, at least 5 months, at least 6 months, or longer, as compared to that observed in a control reference (e.g., a control in which a composition comprising a polymeric biomaterial and a modulator of myeloid-derived suppressive cells is not administered. For example, in some embodiments, a control reference may be administration of a polymeric biomaterial in the absence of a modulator of myeloid-derived suppressive cell function. In some embodiments, a control reference may be administration of a modulator of myeloid-derived suppressive cell function in solution. Alternatively, in some embodiments, a provided composition comprising a biomaterial preparation and a modulator of myeloid-derived suppressive cells is considered and/or determined to be useful for treatment of cancer (including, e.g., prevention or reduction in the likelihood of tumor relapse or metastasis) in accordance with the present disclosure when such a composition, after administration at a tumor resection site, reduces incidence of tumor recurrence and/or metastasis after the tumor resection (e.g., at least 1 month after tumor resection when the test subject is a mouse subject, or at least 3 months after tumor resection when the test subject is a human subject), for example, by at least 10% or more (comprising, e.g., at least 20%, at least 30%, at least 40%, at least 50%, at least 60%, at least 70%, at least 80%, at least 90%, or more) as compared to that observed in a control reference (e.g., as described above).
In some embodiments, female BALB/cJ mice are inoculated orthotopically with 100,000 breast cancer cells (e.g., 4T1-Luc2 cells). Ten days later, tumors are surgically resected, and either (i) a composition described herein, e.g., a composition comprising a polymeric biomaterial and a modulator of myeloid-derived suppressive cells, (ii) a composition comprising a polymeric biomaterial without a modulator of myeloid-derived suppressive cells, and/or (iii) a negative control composition (e.g., a buffered solution without such a composition) is administered into the resection cavity. Animal survival can be monitored to inspect for induction of antitumor immunity. In some embodiments, to confirm that a composition comprising a polymeric biomaterial and a modulator of myeloid-derived suppressive cells functions mechanistically, for example, by modulating recruitment and/or survival and/or proliferation of myeloid-derived suppressive cells (e.g., neutrophils), animal survival may be monitored following inhibition of recruitment and/or survival and/or proliferation of myeloid-derived suppressive cells (e.g., neutrophils). In some embodiments, to confirm that an administered composition comprising a polymeric biomaterial and a modulator of myeloid-derived suppressive cells functions mechanistically by modulating myeloid-derived suppressive cell effector function, animal survival may be monitored following modulating myeloid-derived suppressive cell effector function (e.g., as described herein). […]

[1] = 10% w/w poloxamer 407 + 3% w/w 187 kDa HA with agent, 1.25 mg/mouse, at tumor resection site (day 10), vs same biomaterial without agent and vs 15% w/w poloxamer 407

## Cc1c(C#N)cccc1-c1cc(-c2cn(Cc3cccc(C(C)(C)O)n3)nn2)nc(N)n1 [AB928, etrumadenant]
[1]
  survival of tumor resection mice: survived over a longer period of time

## O=C(c1ccccc1)c1ccc2n1CCC2C(=O)O (stereo not shown) [Ketorolac]
FIG. 2A: 10% w/w poloxamer 407 + 3% w/w 187 kDa HA with agent, 6 mg/mouse, at tumor resection site, vs same biomaterial without agent and vs 15% w/w poloxamer 407
  survival of tumor resection mice: survived over a longer period of time
FIG. 2B: 10% w/w poloxamer 407 + 3% w/w 187 kDa HA with agent, 9 mg/mouse, at tumor resection site, vs same biomaterial without agent and vs 15% w/w poloxamer 407
  survival of tumor resection mice: survived over a longer period of time
FIG. 3: 9% w/w poloxamer 407 + 2.2% w/w 766 kDa HA with agent, 1.2 mg/mouse, at tumor resection site, vs same biomaterial without agent
  survival of tumor resection mice: survived over a longer period of time

## c1cc(CN2CCCNCCNCCCNCC2)ccc1CN1CCCNCCNCCCNCC1 [Plerixafor]
[1]
  survival of tumor resection mice: survived over a longer period of time

## CC/C=C\C[C@H](O)[C@H](O)/C=C/C=C/C=C\C=C\[C@@H](O)C/C=C\CCC(=O)O [Resolvin D2]
FIG. 4: 10% w/w poloxamer 407 + 3% w/w 187 kDa HA with agent, 2.5 μg/mouse, at tumor resection site, vs same biomaterial without agent and vs 15% w/w poloxamer 407
  survival of tumor resection mice: survived over a longer period of time

## CCCCC(=O)N(Cc1ccc(-c2ccccc2-c2nnn[nH]2)cc1)[C@H](C(=O)O)C(C)C [Valsartan]
FIG. 7: 11% w/w poloxamer 407 + 1.8% w/w 766 kDa HA with agent, 1 mg/mouse, at tumor resection site, vs same biomaterial without agent
  survival of tumor resection mice: survived over a longer period of time
